The source of these data is US20150010928A1, “MEANS AND METHODS FOR ASSESSING AN ENDOCRINE DISEASE OR DISORDER” (priority 2012, published 2015).

Where a name gives a salt, the structure may show the parent alone. Marks after values point to notes of the source that are not given here.

One data set has as its system male rats. In words: Plasma metabolite profiling (GC-MS, LC-MS, SPE-LC-MS) in male rats dosed once daily over 28 days (OECD 407). The class given is in vivo, rat. Particulars: male rats, plasma, high dose, day 7. Summed up:
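Metabolites were measured by GC-MS (derivatised) and reversed-phase LC-MS, with steroids by online SPE-LC-MS, in plasma drawn from fasted rats on days 7, 14 and 28 of once-daily dosing (5/sex/group). Values are ratios versus sex-matched untreated controls, normalized to pool samples, with Welch-test p-values.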

The subject of another data set is female rats. In words: Plasma metabolite profiling (GC-MS, LC-MS, SPE-LC-MS) in female rats dosed once daily over 28 days (OECD 407). The class given is in vivo, rat. More on the design: key to 5-O-Methylsphingosine (d18:1) / Isopalmitic acid (C16:0) / Valine / Alanine / Ketoleucine / Serine / Lactate / Arginine: ratio of treated group mean to untreated control mean. As to conditions: for Alanine / Arginine / Ketoleucine / Lactate / Proline / Serine / Valine: Table 17b. The procedure: Each dose group in the studies consisted of five rats per sex. Additional groups of each 5 male and female animals served as controls. […] All animals of the animal population were kept under the same constant temperature (20-24±3° C.) and the same constant humidity (30-70%). The animals of the animal population were fed ad libitum. The food to be used was essentially free of chemical or microbial contaminants. Drinking water was also offered ad libitum. Accordingly, the water was free of chemical and microbial contaminants as laid down in the European Drinking Water Directive 98/83/EG. The illumination period was 12 hours light followed by 12 hours darkness (12 hours light, from 6:00 to 18:00, and 12 hours darkness, from 18:00 to 6:00). […] The test substances (compounds) in the Tables 1 to 17 below were dosed and administered as described in the Table 18.
In the morning of day 7, 14, and 28, blood was taken from the retroorbital venous plexus from fasted anaesthetized animals. From each animal, 1 ml of blood was collected with EDTA as anticoagulant. The samples were centrifuged for generation of plasma. All plasma samples were covered with a N2 atmosphere and then stored at −80° C. until analysis.
For mass spectrometry-based metabolite profiling analyses plasma samples were extracted and a polar and a non-polar (lipid) fraction was obtained. For GC-MS analysis, the non-polar fraction was treated with methanol under acidic conditions to yield the fatty acid methyl esters. Both fractions were further derivatised with O-methyl-hydroxyamine hydrochloride and pyridine to convert Oxogroups to O-methyloximes and subsequently with a silylating agent before analysis. In LC-MS analysis, both fractions were reconstituted in appropriate solvent mixtures. HPLC was performed by gradient elution on reversed phase separation columns. Mass spectrometric detection which allows target and high sensitivity MRM (Multiple Reaction Monitoring) profiling in parallel to a full screen analysis was applied as described in WO2003073464.
Steroids and their metabolites were measured by online SPE-LC-MS (Solid phase extraction-LC-MS).
Following comprehensive analytical validation steps, the data for each analyte were normalized against data from pool samples. These samples were run in parallel through the whole process to account for process variability. The significance of treatment group values specific for sex, treatmentduration and metabolite was determined by comparing means of the treated groups to the means of the respective untreated control groups using WELCH-test and quantified with treatment ratios versus control and p-values.
The identification of the most important biomarkers per toxicity pattern was done by a ranking of the analytes in the tables below. Therefore the metabolic changes in reference treatments of a given pattern (shown in the table) were compared with changes of the same metabolite in other unrelated treatments. […] The maximum absolute value of the respective TVALUE was taken to indicate the most important metabolite for the pattern.

On to `C#C[C@]1(OC(C)=O)CC[C@H]2[C@@H]3CCC4=CC(=O)CC[C@@H]4[C@H]3CC[C@@]21C` [Norethindrone acetate], for which, in the data set on male rats, the “Alanine, ratio versus control” value is reported as 0.88 *; the “Androstenedione, ratio versus control” value is given as 0.42 *; the “Cholesterol, ratio versus control” value is listed as 0.28 *; the “Glycine, ratio versus control” value is given as 0.86 *. Also, in the data set on male rats, the “Heptadecanoic acid (C17:0), ratio versus control” value was 0.56 *; the “Testosterone, ratio versus control” value was 0.59 *; the “Threonine, ratio versus control” value is 0.88 *; the “Uric acid, ratio versus control” value was 0.7 *. The “alpha-Tocopherol, ratio versus control” value in the data set with male rats is reported as 0.32 *. Moreover, in the data set on female rats (f7, high dose, Table 14a), the Cholesterol is reported as 0.17 *; the “Choline plasmalogen No 02” value is 0.3 *; the “Lignoceric acid (C24:0)” value is on record as 0.27^; the “Sphingomyelin (d18:1, C16:0)” value is on record as 0.12 *. In addition, in the data set with female rats (f7, high dose, Table 14a), the “Sphingomyelin (d18:2, C16:0)” value is 0.19 * and the “erythro-Sphingosine (d18:1)” value is on record as 0.03 *.

For `CN(CCOc1ccc(CC2SC(=O)NC2=O)cc1)c1ccccn1` (stereo not drawn) [Rosiglitazone maleate], the “Isopalmitic acid (C16:0)” value with female rats (f7, female rats, high dose, Table 17a) is reported as 1.46 *. In addition, in the data set with female rats (f7, female rats, high dose), the Alanine came out at 0.83, the Arginine was determined as 0.85, the Ketoleucine is 0.72 and the Lactate came to 0.56. Moreover, in the data set on female rats (f7, female rats, high dose), the Proline was found to be 0.91, the Serine was 1 and the Valine is 0.92. Further, in the data set on female rats (f14, female rats, high dose), the Alanine was 0.81, the Arginine amounted to 0.73, the Ketoleucine is 0.71 and the Lactate turned out to be 1.24. Besides, in the data set on female rats (f14, female rats, high dose), the Proline worked out at 0.81, the Serine is 0.91 and the Valine was determined as 0.72. In the data set on female rats (f28, female rats, high dose, Table 17a), the “Isopalmitic acid (C16:0)” value is 1.52 *. Further, in the data set on female rats (f28, female rats, high dose), the Alanine came to 0.92, the Arginine is reported as 0.93, the Ketoleucine is 0.67 and the Lactate was 0.65. In the data set on female rats (f28, female rats, high dose), the Proline is 1.03, the Serine is given as 1.06 and the Valine amounted to 0.98. Also, the “Isopalmitic acid (C16:0)” value in the data set with female rats (rat, in vivo) is 1.41 *.
